From patent publication US12090221B2, “Composition for preventing gray hair, promoting black hair and preventing, improving or treating vitiligo or hypochromatism comprising fructose 1,6-bisphosphate or salt, solvate, stereoisomer or hydrate thereof as active ingredient” (AMOREPACIFIC CORPORATION, priority 2021, dated 2024) come the findings set out here.

Assay [1] deals with Normal human epidermal melanocytes. Kind of assay: Melanin synthesis-promoting effect in normal human melanocytes (absorbance at 475 nm of NaOH lysate). In kind it is cell-based. The following applies: cultured for 6 days, relative to untreated group as 100%. The protocol: Normal human epidermal melanocytes (GIBCO™, ThermoFisher Scientific, USA) were treated with fructose 1,6-bisphosphate at 0 (untreated group), 0.1, 1, 10 or 100 ppm and then cultured for 6 days. After the culturing, the cells were lysed with 1 N NaOH and absorbance was measured at 475 nm. Relative melanin production was represented with respective to the absorbance of the untreated group not treated with fructose 1,6-bisphosphate as 100%. A higher absorbance means a higher melanin content.

The next assay deals with human hair follicles. Kind of assay: Effect of preventing gray hair and promoting black hair in cultured human hair follicles damaged with hydrogen peroxide (Fontana-Masson staining of melanin). The settings on record: 100 ppm together with 1000 μM hydrogen peroxide, cultured for 3 days, FIG. 3. It is filed as cell-based. The protocol: Occipital scalp tissue was obtained from a person who received hair follicle transplantation surgery due to hair loss. Hair follicle samples were isolated from the obtained occipital scalp tissue using a microscope. A total of 15 hair follicle samples were prepared for 3 groups, with 5 samples per each group. The hair follicle samples were cultured on a 24-well plate (Nunc, Wiesbaden, Germany) containing 500 μL of a culture medium, with 5 samples per well. As the culture medium, William's E medium (GIBCO, NY, USA) containing 2 mM L-glutamine (PAA, Coelbe, Germany), 10 μg/mL insulin, 10 ng/mL hydrocortisone (Sigma, St Louis, Mo.), 0.1% Fungizone (GIBCO, NY, USA), 10 μg/mL streptomycin and 100 U/mL penicillin (GIBCO, NY, USA) was used. After simultaneously treating with hydrogen peroxide and a fructose 1,6-bisphosphate trisodium salt (FBP-Na3H) at 1000 μM and 100 ppm, respectively, the samples were cultured for 3 days. For comparison, control groups were treated with 1000 μM hydrogen peroxide (H2O2) only or with neither hydrogen peroxide nor the fructose 1,6-bisphosphate trisodium salt. After the treatment, the sample was fixed with formalin, washed with water, dehydrated with alcohol and xylene, and then embedded in paraffin according to a common tissue-processing procedure. […]

Regarding `O=C(COP(=O)(O)O)[C@@H](O)[C@H](O)[C@H](O)COP(=O)(O)O` [fructose 1,6-bisphosphate], the “Relative melanin production (effect of promoting melanin production in melanocytes)” value is listed as “exhibits the effect of promoting melanin production in melanocytes” in assay [1] (0.1, 1, 10 or 100 ppm, FIG. 1 and FIG. 2); “significantly high” in assay [1] (100 ppm treatment group).
On to `O=C(COP(=O)([O-])[O-])[C@@H](O)[C@H](O)[C@H](O)COP(=O)([O-])O.[Na+].[Na+].[Na+]` [fructose 1,6-bisphosphate trisodium salt], for which the “Melanin production in human hair follicles (Fontana-Masson staining)” value in the assay with human hair follicles was “promoting melanin production in human hair follicles”. In the assay on human hair follicles (compared with H2O2 only), the “Prevention of decreased melanin production in hair bulbs due to hydrogen peroxide damage (Fontana-Masson staining)” value is on record as “preventing decreased melanin production in hair bulbs due to damage caused by hydrogen peroxide”.
